Measurements taken from patent US7304093B2, “Ketone compounds and compositions for cholesterol management and related uses” (Esperion Therapeutics, Inc., priority 2000, dated 2007).
Where two headings read alike, the source gives them in different places. Marks after values point to notes of the source that are not given here.

Tested on: female obese Zucker rats
Assay: Serum lipid and glycemic control variables in chow-fed obese female Zucker rats, daily oral gavage for two weeks
Type: in vivo, rat
Details: for change in vivo at 100 mg/kg: Rattus norvegicus, Table 9; for Glucose / HDL-C / NEFA / Non-HDL-C / TG / Insulin: serum, mean ± SEM
Outline: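 Female obese Zucker fa rats, 10–12 wk, 400–500 g, chow-fed, dosed daily by oral gavage for 14 days in CMC/Tween 20 or ethanol/PEG-200 vehicle. After a 6-h fast, serum was sampled pre-dose, day 7 and day 14. Triglycerides, total cholesterol, NEFA and β-hydroxybutyrate were measured, plus lipoprotein cholesterol by gel-filtration profiling.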

[1] = 168 h, 100 mg/kg daily oral, 1 wk, read-out: HDL-Cholesterol, Percent Change from Pre-Treatment
[2] = 168 h, 100 mg/kg daily oral, 1 wk, read-out: NonHDL-Cholesterol, Percent Change from Pre-Treatment
[3] = 168 h, 100 mg/kg daily oral, 1 wk, read-out: TG, Percent Change from Pre-Treatment
[4] = 336 h, 100 mg/kg daily oral, 2 wk, read-out: HDL-Cholesterol, Percent Change from Pre-Treatment
[5] = 336 h, 100 mg/kg daily oral, 2 wk, read-out: NonHDL-Cholesterol, Percent Change from Pre-Treatment
[6] = 336 h, 100 mg/kg daily oral, 2 wk, read-out: TG, Percent Change from Pre-Treatment

## CC(C)(CCCCCC(=O)CCCCCC(C)(C)C(=O)O)C(=O)O [Compound 210g, 2,2,14,14-Tetramethyl-8-oxopentadecanedioic acid]
3 mg/kg daily oral, 1 wk
  NEFA, percent increase (+) or decrease (−) of the pretreatment control value: (−15) percent
  Glucose: 117 ± 4 mg/dL
  HDL-C: 75 ± 6 mg/dL
  NEFA: 1.1 ± 0.07
  Non-HDL-C: 23 ± 2 mg/dL
  TG: 995 ± 50^a mg/dl
3 mg/kg daily oral, 2 wk
  Glucose, percent increase (+) or decrease (−) of the pretreatment control value: (+108) percent
  NEFA, percent increase (+) or decrease (−) of the pretreatment control value: (−23) percent
  Glucose: 124 ± 4^a mg/dl
  HDL-C: 77 ± 8 mg/dL
  NEFA: 1.0 ± 0.10
  Non-HDL-C: 25 ± 2 mg/dL
  TG: 833 ± 57 mg/dL
10 mg/kg daily oral, 1 wk
  HDL-C, percent increase (+) or decrease (−) of the pretreatment control value: (+158) percent
  NEFA, percent increase (+) or decrease (−) of the pretreatment control value: (−17) percent
  TG, percent increase (+) or decrease (−) of the pretreatment control value: (−36) percent
  Glucose: 122 ± 3 mg/dL
  HDL-C: 136 ± 11^a mg/dl
  NEFA: 1.0 ± 0.07
  Non-HDL-C: 22 ± 2 mg/dL
  TG: 553 ± 35^a mg/dl
10 mg/kg daily oral, 2 wk
  HDL-C, percent increase (+) or decrease (−) of the pretreatment control value: (+160) percent
  NEFA, percent increase (+) or decrease (−) of the pretreatment control value: (−21) percent
  Non-HDL-C, percent increase (+) or decrease (−) of the pretreatment control value: (+155) percent
  Glucose: 125 ± 4 mg/dL
  HDL-C: 138 ± 8^a mg/dl
  NEFA: 0.95 ± 0.08
  Non-HDL-C: 34 ± 3^a mg/dl
  TG: 865 ± 69 mg/dL
30 mg/kg daily oral, 1 wk
  HDL-C, percent increase (+) or decrease (−) of the pretreatment control value: (+256) percent
  Insulin, percent increase (+) or decrease (−) of the pretreatment control value: (−35) percent
  NEFA, percent increase (+) or decrease (−) of the pretreatment control value: (−32) percent
  Non-HDL-C, percent increase (+) or decrease (−) of the pretreatment control value: (−48) percent
  TG, percent increase (+) or decrease (−) of the pretreatment control value: (−78) percent
  Glucose: 108 ± 4 mg/dL
  HDL-C: 159 ± 12^a mg/dl
  NEFA: 0.88 ± 0.06
  Non-HDL-C: 14 ± 2^a mg/dl
  TG: 213 ± 19^a mg/dl
30 mg/kg daily oral, 2 wk
  HDL-C, percent increase (+) or decrease (−) of the pretreatment control value: (+335) percent
  Insulin, percent increase (+) or decrease (−) of the pretreatment control value: (−21) percent
  NEFA, percent increase (+) or decrease (−) of the pretreatment control value: (−49) percent
  TG, percent increase (+) or decrease (−) of the pretreatment control value: (−52) percent
  Glucose: 130 ± 4 mg/dL
  HDL-C: 208 ± 14^a mg/dl
  NEFA: 0.66 ± 0.03
  Non-HDL-C: 30 ± 2 mg/dL
  TG: 475 ± 38^a mg/dl
100 mg/kg daily oral, 1 wk
  Glucose, percent increase (+) or decrease (−) of the pretreatment control value: (−21) percent
  HDL-C, percent increase (+) or decrease (−) of the pretreatment control value: (+151) percent
  Insulin, percent increase (+) or decrease (−) of the pretreatment control value: (−46) percent
  NEFA, percent increase (+) or decrease (−) of the pretreatment control value: (−30) percent
  Non-HDL-C, percent increase (+) or decrease (−) of the pretreatment control value: (−92) percent
  TG, percent increase (+) or decrease (−) of the pretreatment control value: (−93) percent
  Glucose: 92 ± 4^a mg/dl
  HDL-C: 100 ± 8^a mg/dl
  NEFA: 0.98 ± 0.08
  Non-HDL-C: 2 ± 1^a mg/dl
  TG: 69 ± 5^a mg/dl
100 mg/kg daily oral, 2 wk
  Glucose, percent increase (+) or decrease (−) of the pretreatment control value: (−10) percent
  HDL-C, percent increase (+) or decrease (−) of the pretreatment control value: (+213) percent
  Insulin, percent increase (+) or decrease (−) of the pretreatment control value: (−50) percent
  NEFA, percent increase (+) or decrease (−) of the pretreatment control value: (−52) percent
  Non-HDL-C, percent increase (+) or decrease (−) of the pretreatment control value: (−88) percent
  TG, percent increase (+) or decrease (−) of the pretreatment control value: (−92) percent
  Glucose: 105 ± 3^a mg/dl
  HDL-C: 141 ± 12^a mg/dl
  NEFA: 0.66 ± 0.08
  Non-HDL-C: 3 ± 1^a mg/dl
  TG: 78 ± 10^a mg/dl
[1]
  change in vivo at 100 mg/kg: 72%
[2]
  change in vivo at 100 mg/kg: -98%
[3]
  change in vivo at 100 mg/kg: -93%
[4]
  change in vivo at 100 mg/kg: 168%
[5]
  change in vivo at 100 mg/kg: -99%
[6]
  change in vivo at 100 mg/kg: -94%
3 mg/kg daily oral, 1 wk, Table 12
  Insulin: 1000 ± 100 ng/dL
3 mg/kg daily oral, 2 wk, Table 12
  Insulin: 730 ± 50 ng/dL
10 mg/kg daily oral, 1 wk, Table 12
  Insulin: 1050 ± 110 ng/dL
10 mg/kg daily oral, 2 wk, Table 12
  Insulin: 910 ± 70 ng/dL
30 mg/kg daily oral, 1 wk, Table 12
  Insulin: 6.4 ± 0.6^a ng/ml
30 mg/kg daily oral, 2 wk, Table 12
  Insulin: 7.7 ± 0.9^a ng/ml
100 mg/kg daily oral, 1 wk, Table 12
  Insulin: 6.4 ± 1.3^a ng/ml
100 mg/kg daily oral, 2 wk, Table 12
  Insulin: 6.0 ± 0.8^a ng/ml

## CC(C)(CCCCC(=O)CCCCC(C)(C)C(=O)O)C(=O)O [Compound 210c, 7-Oxo-2,2,12,12-tetramethyltridecanedioic acid]
10 mg/kg daily oral, 1 wk
  Insulin, percent increase (+) or decrease (−) of the pretreatment control value: (−27) percent
  Non-HDL-C, percent increase (+) or decrease (−) of the pretreatment control value: (−35) percent
  Glucose: 105 ± 3 mg/dL
  HDL-C: 47 ± 7 mg/dL
  NEFA: 0.92 ± 0.09
  Non-HDL-C: 26 ± 4^a mg/dl
  TG: 692 ± 180 mg/dL
30 mg/kg daily oral, 1 wk
  HDL-C, percent increase (+) or decrease (−) of the pretreatment control value: (+156) percent
  NEFA, percent increase (+) or decrease (−) of the pretreatment control value: (−29) percent
  Non-HDL-C, percent increase (+) or decrease (−) of the pretreatment control value: (−23) percent
  TG, percent increase (+) or decrease (−) of the pretreatment control value: (−33) percent
  Glucose: 115 ± 4 mg/dL
  HDL-C: 53 ± 8^a mg/dl
  NEFA: 1.0 ± 0.11
  Non-HDL-C: 37 ± 4^a mg/dl
  TG: 826 ± 92^a mg/dl
30 mg/kg daily oral, 2 wk
  HDL-C, percent increase (+) or decrease (−) of the pretreatment control value: (+147) percent
  Glucose: 118 ± 8 mg/dL
  HDL-C: 50 ± 9^a mg/dl
  NEFA: 1.1 ± 0.20 mg/dL
  Non-HDL-C: 43 ± 5 mg/dL
  TG: 962 ± 118 mg/dL
100 mg/kg daily oral, 1 wk
  HDL-C, percent increase (+) or decrease (−) of the pretreatment control value: (+174) percent
  NEFA, percent increase (+) or decrease (−) of the pretreatment control value: (−33) percent
  Non-HDL-C, percent increase (+) or decrease (−) of the pretreatment control value: (−42) percent
  TG, percent increase (+) or decrease (−) of the pretreatment control value: (−60) percent
  Glucose: 113 ± 6 mg/dL
  HDL-C: 66 ± 9^a mg/dl
  NEFA: 0.81 ± 0.07
  Non-HDL-C: 18 ± 3^a mg/dl
  TG: 383 ± 49^a mg/dl
100 mg/kg daily oral, 2 wk
  HDL-C, percent increase (+) or decrease (−) of the pretreatment control value: (+179) percent
  NEFA, percent increase (+) or decrease (−) of the pretreatment control value: (−45) percent
  Non-HDL-C, percent increase (+) or decrease (−) of the pretreatment control value: (−29) percent
  TG, percent increase (+) or decrease (−) of the pretreatment control value: (−54) percent
  Glucose: 122 ± 7 mg/dL
  HDL-C: 68 ± 10^a mg/dl
  NEFA: 0.66 ± 0.06
  Non-HDL-C: 22 ± 3^a mg/dl
  TG: 440 ± 58^a mg/dl
[1]
  change in vivo at 100 mg/kg: 54%
[2]
  change in vivo at 100 mg/kg: -62%
[3]
  change in vivo at 100 mg/kg: -74%
[4]
  change in vivo at 100 mg/kg: 78%
[5]
  change in vivo at 100 mg/kg: -41%
[6]
  change in vivo at 100 mg/kg: -69%
3 mg/kg daily oral, 1 wk
  Glucose: 99 ± 4 mg/dL
  HDL-C: 36 ± 1 mg/dL
  NEFA: 1.2 ± 0.16 mg/dL
  Non-HDL-C: 24 ± 2 mg/dL
  TG: 775 ± 92 mg/dL
3 mg/kg daily oral, 1 wk, Tables 10, 11
  Insulin: 10.7 ± 0.8 ng/dL
3 mg/kg daily oral, 2 wk
  Glucose: 103 ± 3 mg/dL
  HDL-C: 33 ± 1 mg/dL
  NEFA: 1.5 ± 0.27 mg/dL
  Non-HDL-C: 24 ± 3 mg/dL
  TG: 857 ± 103 mg/dL
3 mg/kg daily oral, 2 wk, Tables 10, 11
  Insulin: 8.6 ± 0.5 ng/dL
10 mg/kg daily oral, 1 wk, Tables 10, 11
  Insulin: 7.7 ± 1.0^a ng/dl
10 mg/kg daily oral, 2 wk
  Glucose: 113 ± 3 mg/dL
  HDL-C: 39 ± 5 mg/dL
  NEFA: 1.5 ± 0.28 mg/dL
  Non-HDL-C: 27 ± 4 mg/dL
  TG: 814 ± 205 mg/dL
10 mg/kg daily oral, 2 wk, Tables 10, 11
  Insulin: 8.9 ± 1.3 ng/dL
30 mg/kg daily oral, 1 wk, Tables 10, 11
  Insulin: 9.2 ± 1.3 ng/dL
30 mg/kg daily oral, 2 wk, Tables 10, 11
  Insulin: 8.5 ± 1.8 ng/dL
100 mg/kg daily oral, 1 wk, Tables 10, 11
  Insulin: 9.0 ± 1.0 ng/dL
100 mg/kg daily oral, 2 wk, Tables 10, 11
  Insulin: 9.5 ± 0.9 ng/dL
